From PMC11881906, “Development of xanthone derivatives as effective broad-spectrum antimicrobials: Disrupting cell wall and inhibiting DNA synthesis” (Science Advances, 2025)

Tests used:
P. aeruginosa ATCC 9027 = experiment: Time-kill kinetic assay; assay type: cell-based, Pseudomonas aeruginosa; conditions: 5× MIC
Experimental: The bacterial cultures were standardized to obtain an initial density that ranged from 10^5 to 10^6 cells/ml. The cultures were incubated in a shaking bath at 37°C. Viable counts were determined at 0-, 0.5-, 1.0-, 2.0-, 4.0-, 8.0-, and 24-hour intervals by spotting 10-μl aliquots of serially 10-fold diluted cultures onto Mueller-Hinton agar (MHA) plates. After incubation at 37°C for 24 hours, the bactericidal activity, defined as the ability to reduce the initial inoculum by 3 log10 CFU/ml, was examined for each tested concentration over time. All measurements were repeated three times with duplicates each time.

S. aureus ATCC 29213 = experiment: SYTOX Green uptake assay; assay type: cell-based, Staphylococcus aureus; conditions: up to 8× MIC
Experimental: The SYTOX Green uptake was measured to explore the inner membrane permeability. The overnight bacteria culture was centrifuged and resuspended in sterile PBS to obtain an OD600 of 0.2. SYTOX Green dye was added to a final concentration of 0.3 μM and incubated for 20 min without being exposed to the light. Fluorescence was measured at excitation and emission wavelengths of 504 and 523 nm, respectively. […] The changes in fluorescence intensity were continuously monitored for 1 hour. All measurements were repeated three times with duplicates each time.

## CC(C)=CCOc1cc(OCCCNC(=N)N)cc2oc3cc(OCCCNC(=N)N)ccc3c(=O)c12 [XT17]
P. aeruginosa ATCC 9027; 1 hour
  log bacterial load reduction: 3.24 log
P. aeruginosa ATCC 9027; at 24 hours
  bacterial regrowth: no bacterial regrowth was observed
S. aureus ATCC 29213
  SYTOX Green fluorescence intensity (cytoplasmic membrane permeabilization): did not show a notable increase
